Consider one compound from patent US20050277624A1, “Use of corticosteroids alone or in conjunction with nutritional therapy to reduce stress in animals” (priority 2004, published 2005).

For one experiment, the system named is calves. The experiment is described as follows: Behavioural scans (lying and eating frequency) for three days following transport (Example 3). The format is in vivo. The note with it: three day average following transport. The text has this: Corticosteroid treatment in conjunction with a nutritional supplement appears to enhance recovery from transport stress. The behavioral responses of animals were monitored following transport. Calves were allocated among five treatment groups as follows:
For all of the above groups, ten behavioural scans lasting one minute each were completed each day (pm) for three days following transport, thereby accumulating a total of 2,280 animal observations. Frequency measures of animals lying and eating were collected. It is well known to those skilled in the art that when animals are fatigued or morbid, they tend to lie down (Kilbour et al., 1984; Agri-Food Research Council Canadian Food Inspection Agency, 2001).

A short description of experiment [1]: Weight loss of calves during 10 h transport (Example 1). It counts as in vivo, crossbred calves (cattle). The note with it: calves ~600 lb, dexamethasone i.m. 2 mg per 50 lb body weight. From the text:
Forty head of crossbred calves, both steers and heifers, and weighing approximately 600 lb (272 kg) on average were used. The calves were raised at the Agriculture and Agri-Food Canada Lacombe Research Centre (Lacombe, Alberta, Canada) in accordance with standard operating procedures representative of the cattle industry. The calves were randomly divided into two treatment groups designated as control (n=20) and dexamethasone-treated (n=20) and kept on standard feed (cereal grain silage) and water rations prior to transport.
Weights of all animals were recorded pre- and post-transport, metabolic activity was assessed by infrared thermographic analyses (IRT) of the eye region, and a salivary swab collection made for cortisol measurement.
The animals were subsequently loaded onto a commercial transport and transported for 10 h prior to being off loaded at the Agriculture and Agri-Food Canada Kamloops Research Centre (Kamloops, British Columbia, Canada). On arrival, the calves were again weighed, infrared images captured and a salivary swab collected. The animals were held overnight in pens with ad libitum access to water and cereal grain silage, and were again monitored for weight, thermal changes and salivary cortisol the following morning.

A short description of experiment [2]: Weight loss of calves during 8 h transport (Example 2). It counts as in vivo, crossbred calves (cattle). The note with it: calves ~800 lb, dexamethasone i.m. 0.61 mg per 50 lb, NT 1 kg/animal 24 h prior. The text has this:
The study in Example 1 was repeated with the addition of a nutritional supplement treatment group. The calves were raised at the Agriculture and Agri-Food Canada Lacombe Research Centre (Lacombe, Alberta, Canada) in accordance with standard operating procedures representative of the cattle industry. The breed, sex and weight of the calves were similar to those used in Example 1. Crossbred calves weighing approximately 800 lb (363 kg) on average were used.
Twenty-four hours prior to transport, the calves were assigned to the nutritional supplement groups and were offered 1 kg/animal of nutritional supplement or a “receiver calf” preparation (Supplement 1(d) as described in U.S. Pat. Nos. 5,505,968 and 5,728,675 to Schaefer et al. with differences being the selection of flavoring, form of an extruded pellet, and carrier being alfalfa) along with their regular feed ration (cereal grain silage). All calves in all treatments were kept on normal feed and water rations prior to transport.
Weights of all animals were recorded pre- and post-transport and metabolic activity was assessed by infrared thermographic analyses of the eye region. […] The animals were then loaded onto a commercial transport carrier and transported for 8 h prior to being offloaded, re-weighed, re-scanned with infrared and re-sampled for cortisol. […]

As to `C[C@@H]1C[C@H]2[C@@H]3CCC4=CC(=O)C=C[C@]4(C)[C@@]3(F)[C@@H](O)C[C@]2(C)[C@@]1(O)C(=O)CO` [dexamethasone], in the experiment with calves (control away 20%, control home 78%), the “Eating Frequency” value was determined as 24%. Moreover, the “Lying Frequency” value in the experiment with calves (control away 97%, control home 23%) stood at 0%. In addition, the “weight loss during transport” value in experiment [1] (control lost 5%) was 3.2 % body weight; in experiment [1] (control lost 13.8 kg) it was 8.7 kg; in experiment [1] (control lost 30.5 lb, P<0.05), 19.2 lb; in experiment [2] (control lost 21.5 kg), 17.6 kg; in experiment [2] (control lost 47.36 lb, P<0.05) it was 38.87 lb.
